Laboratory results as given in patent publication US20250312258A1, “2,3-PYRROLIDINEDIONE CONJUGATES AND METHODS OF USING THEREOF” (North Carolina State University, priority 2022, published 2025).
Read-outs that look alike come from different tables or passages of the source.

What was measured:
S. pneumoniae = experiment: MIC against S. pneumoniae strain panel; type: cell-based; details: Streptococcus pneumoniae, read-out: MIC
ATCC 29212 E. faecalis = experiment: MIC against ATCC 29212 E. faecalis; type: cell-based; details: Enterococcus faecalis, ATCC29212, ATCC 29212 E. faecalis, read-out: MIC
MRSA 33591 = experiment: Broth microdilution MIC, MRSA 33591; type: cell-based; details: Staphylococcus aureus, read-out: MIC (MRSA 33591)
Group B Strep = experiment: MIC against Group B Strep strain panel; type: cell-based; details: read-out: MIC
VRE = experiment: MIC / in vitro activity against VRE strain panel; type: cell-based, Enterococcus spp.; details: for MIC: Enterococcus, VRE, read-out: MIC
MRSA = experiment: MIC against MRSA strain panel; type: cell-based; details: Staphylococcus aureus, the 4th table, read-out: MIC
S. aureus 25923 = experiment: Broth microdilution MIC, S. aureus 25923; type: cell-based, Staphylococcus aureus; details: Staphylococcus aureus, 25923; read-out: MIC (S. aureus 25923)
Group A Strep = experiment: MIC against Group A Strep strain panel; type: cell-based; details: read-out: MIC
E. coli = experiment: MIC against E. coli strains; type: cell-based; details: the 4th table
VRSA [1] = experiment: MIC against VRSA strain panel (VRS/NRS strains); type: cell-based; details: Staphylococcus aureus, read-out: MIC
VRSA [2] = experiment: MIC against VRSA (Table 2); type: cell-based; details: Staphylococcus aureus, read-out: MIC (VRSA)
MSSA = experiment: MIC against MSSA strain panel; type: cell-based; details: Staphylococcus aureus, the 4th table, read-out: MIC
S. aureus 29213 = experiment: Broth microdilution MIC, S. aureus 29213; type: cell-based, Staphylococcus aureus; details: Staphylococcus aureus

CCC1C(c2ccc(C(F)(F)F)cc2)=C(O)C(=O)N1C1CCC(NC)CC1 (stereo not shown) [Compound 4]
>64 µg/mL: MIC (E. coli; AR-137 E. coli)
0.5 µg/mL: MIC (S. pneumoniae; ATCC49619, ATCC 49619 S. pneumoniae, the 7th table) | MIC (S. pneumoniae; CO314937 S. pneumoniae, CA-MHB w/5% LHB, the 4th table) | MIC (S. pneumoniae; CT3-5008 S. pneumoniae, the 7th table) | MIC (S. pneumoniae; CT3-5803 S. pneumoniae, the 7th table) | MIC (S. pneumoniae; CT3-8501 S. pneumoniae, the 7th table) | MIC (S. pneumoniae; CT4-3048 S. pneumoniae, the 7th table) | MIC (S. pneumoniae; CT4-9693 S. pneumoniae, the 7th table) | MIC (S. pneumoniae; CT5-6541 S. pneumoniae, the 7th table) | MIC (S. pneumoniae; CT5-8032 S. pneumoniae, the 7th table) | MIC (S. pneumoniae; CT6-0670 S. pneumoniae, the 7th table) | MIC (S. pneumoniae; CT6-7691 S. pneumoniae, the 7th table) | MIC (S. pneumoniae; CT0200-2241 S. pneumoniae, the 7th table) | MIC (S. pneumoniae; CT0200-2730 S. pneumoniae, the 7th table) | MIC (S. pneumoniae; MD77773 S. pneumoniae, CA-MHB w/5% LHB, the 4th table) | MIC (Group B Strep; 2008-57 Group B Strep, the 9th table) | MIC (Group B Strep; 2008-70 Group B Strep, the 9th table) | MIC (Group B Strep; 2008-87 Group B Strep, CA-MHB w/5% LHB, the 4th table) | MIC (Group B Strep; 2008-115 Group B Strep, the 9th table) | MIC (Group B Strep; 2009-20 Group B Strep, the 9th table) | MIC (Group B Strep; 2009-40 Group B Strep, the 9th table) | MIC (Group B Strep; 2009-43 Group B Strep, the 9th table) | MIC (Group B Strep; 2009-51 Group B Strep, the 9th table) | MIC (Group B Strep; 2009-57 Group B Strep, the 9th table) | MIC (Group B Strep; 2009-59 Group B Strep, the 9th table) | MIC (Group B Strep; 2009-60 Group B Strep, the 9th table) | MIC (Group B Strep; 2009-61 Group B Strep, CA-MHB w/5% LHB, the 4th table) | MIC (Group B Strep; J4182 Group B Strep, the 9th table) | MIC (Group B Strep; J4183 Group B Strep, the 9th table) | MIC (Group B Strep; J4185 Group B Strep, the 9th table) | MIC (Group B Strep; J4186 Group B Strep, the 9th table) | MIC (Group B Strep; J4222 Group B Strep, the 9th table) | MIC (S. aureus 25923) | MIC (Group A Strep; 2007-11 Group A Strep, the 8th table) | MIC (Group A Strep; 2007-28 Group A Strep, the 8th table) | MIC (Group A Strep; 2007-49 Group A Strep, the 8th table) | MIC (Group A Strep; 2007-73 Group A Strep, the 8th table) | MIC (Group A Strep; 2007-107 Group A Strep, the 8th table) | MIC (Group A Strep; 2007-1101 Group A Strep, the 8th table) | MIC (Group A Strep; 2008-06 Group A Strep, the 8th table) | MIC (Group A Strep; 2008-45 Group A Strep, the 8th table) | MIC (Group A Strep; 2008-1565 Group A Strep, the 8th table) | MIC (Group A Strep; 2008-1692 Group A Strep, the 8th table) | MIC (Group A Strep; 2009-8 Group A Strep, the 8th table) | MIC (Group A Strep; 2009-37 Group A Strep, CA-MHB w/5% LHB, the 4th table) | MIC (Group A Strep; 2009-106 Group A Strep, the 8th table) | MIC (Group A Strep; 2009-109 Group A Strep, the 8th table) | MIC (Group A Strep; 2009-114 Group A Strep, the 8th table) | MIC (Group A Strep; 2009-136 Group A Strep, the 8th table)
4 µg/mL: MIC (VRE; 1751 (VRE), the 3rd table) | MIC (VRE; 1751 VRE, the 6th table) | MIC (VRE; 3183 (VRE), the 3rd table) | MIC (VRE; 3183 VRE, the 6th table) | MIC (VRSA [1]; NRS 1 / VRSA, NRS-1 (VRSA), the 3rd table) | MIC (VRSA [1]; NRS 1 / VRSA, NRS-1 VRSA, the 5th table) | MIC (VRSA [1]; VRSA, VRS-2 (VRSA), the 3rd table) | MIC (VRSA [1]; VRSA, VRS-2 VRSA, the 5th table) | MIC (VRSA [1]; VRSA, VRS-3a VRSA, the 5th table) | MIC (VRSA [1]; VRSA, VRS-4 (VRSA), the 3rd table)
8 µg/mL: MIC (VRE; 1593 (VRE), the 3rd table) | MIC (VRE; 1593 VRE, the 4th table) | MIC (VRE; 1772 VRE, the 6th table) | MIC (VRE; 1946 VRE, the 6th table) | MIC (VRE; 2059 VRE, the 6th table) | MIC (VRE; 2431 (VRE), the 3rd table) | MIC (VRE; 2431 VRE, the 6th table) | MIC (VRE; 2574 VRE, the 6th table) | MIC (VRE; 3190 VRE, the 6th table) | MIC (VRE; 3191 VRE, the 6th table) | MIC (VRE; 3222 (VRE, the 3rd table)) | MIC (VRE; 3222 VRE, the 6th table) | MIC (VRE; 3235 VRE, the 6th table) | MIC (VRE; 3239 VRE, the 6th table) | MIC (VRE; 3241 VRE, the 6th table) | MIC (VRE; 3623 VRE, the 6th table) | MIC (VRSA [1]; VRSA, VRS-4 VRSA, the 5th table) | MIC (VRSA [1]; VRSA, VRS-5 VRSA, the 5th table) | MIC (VRSA [1]; VRSA, VRS-7 VRSA, the 5th table)
1 µg/mL: MIC (MRSA 33591) | MIC (MRSA; 6215 MRSA) | MIC (MRSA; 6217 MRSA) | MIC (MRSA; 6218 MRSA) | MIC (MRSA; 6220 MRSA) | MIC (MRSA; 6231 MRSA) | MIC (MRSA; AR-978 MRSA) | MIC (MRSA; AR-979 MRSA) | MIC (MRSA; AR-993 MRSA) | MIC (MRSA; AR-997 MRSA) | MIC (VRSA [2]) | MIC (MSSA; VGP16-94 MSSA) | MIC (MSSA; VGP16-96 MSSA) | MIC (MSSA; VGP16-97 MSSA) | MIC (MSSA; VGP16-98 MSSA) | MIC (MSSA; VGP16-99 MSSA) | MIC (MSSA; VGP16-100 MSSA) | MIC (MSSA; VGP16-101 MSSA) | MIC (MSSA; VGP16-116 MSSA) | MIC (MSSA; VGP16-117 MSSA) | MIC (S. aureus 29213; ATCC 29213 / MRSA, ATCC 29213 MRSA, the 5th table, read-out: MIC)
> 64 µg/mL: MIC (E. coli; Escherichia coli, ATCC25922, ATCC 25922 E. coli, read-out: MIC) | MIC (E. coli; Escherichia coli, AR-451 E. coli, read-out: MIC) | MIC (VRSA [1]; VRSA, VRS-3b VRSA, the 5th table)
0.25 µg/mL: MIC (S. pneumoniae; ATCC49619, ATCC 49619 S. pneumoniae, CA-MHB w/5% LHB, the 4th table) | MIC (S. pneumoniae; CT4-9046 S. pneumoniae, the 7th table) | MIC (S. pneumoniae; CT5-9124 S. pneumoniae, the 7th table) | MIC (Group B Strep; 2009-62 Group B Strep, CA-MHB w/5% LHB, the 4th table) | MIC (Group A Strep; 2008-818 Group A Strep, CA-MHB w/5% LHB, the 4th table) | MIC (Group A Strep; 2008-1732 Group A Strep, CA-MHB w/5% LHB, the 4th table)
0.5 to 1 µg/mL: MIC (S. aureus 29213; 29213, read-out: MIC (S. aureus 29213))
superior in vitro activity: in vitro activity against vancomycin-resistant Enterococcus spp. (VRE) compared with vancomycin (VRE; FIGS. 4A-4D)
16 µg/mL: MIC (VRE; 3053 VRE, the 6th table) | MIC (VRSA [1]; VRSA, VRS-1 (VRSA), the 3rd table) | MIC (VRSA [1]; VRSA, VRS-1 VRSA, the 5th table) | MIC (VRSA [1]; VRSA, VRS-6 VRSA, the 5th table) | MIC (VRSA [1]; VRSA, VRS-8 VRSA, the 5th table) | MIC (VRSA [1]; VRSA, VRS-9 VRSA, the 5th table) | MIC (VRSA [1]; VRSA, VRS-10 VRSA, the 5th table) | MIC (VRSA [1]; VRSA, VRS-11a VRSA, the 5th table) | MIC (VRSA [1]; VRSA, VRS-11b VRSA, the 5th table)
2 µg/mL: MIC (ATCC 29212 E. faecalis; the 4th table) | MIC (ATCC 29212 E. faecalis; the 6th table) | MIC (VRSA [1]; NRS 2 / VRSA, NRS-2 VRSA, the 5th table) | MIC (MSSA; VGP16-95 MSSA) | MIC (S. aureus 29213; ATCC 29213 / MRSA, ATCC 29213 MRSA, the 4th table, read-out: MIC)
